Literature values as cited in patent US8569328B1, “Compositions and methods comprising tilidine or related compounds and dextromethorphan” (Antecip Bioventures II LLC, priority 2011, dated 2013).

Assays:
[1] = three large multicenter randomized studies; dextromethorphan added to morphine
[2] = biological target: cytochrome P450 isozyme CYP2D6 (Homo sapiens, UniProt P10635); conditions: in vitro
Chain of cytochrome P450 isozyme CYP2D6 (P10635 whole entry): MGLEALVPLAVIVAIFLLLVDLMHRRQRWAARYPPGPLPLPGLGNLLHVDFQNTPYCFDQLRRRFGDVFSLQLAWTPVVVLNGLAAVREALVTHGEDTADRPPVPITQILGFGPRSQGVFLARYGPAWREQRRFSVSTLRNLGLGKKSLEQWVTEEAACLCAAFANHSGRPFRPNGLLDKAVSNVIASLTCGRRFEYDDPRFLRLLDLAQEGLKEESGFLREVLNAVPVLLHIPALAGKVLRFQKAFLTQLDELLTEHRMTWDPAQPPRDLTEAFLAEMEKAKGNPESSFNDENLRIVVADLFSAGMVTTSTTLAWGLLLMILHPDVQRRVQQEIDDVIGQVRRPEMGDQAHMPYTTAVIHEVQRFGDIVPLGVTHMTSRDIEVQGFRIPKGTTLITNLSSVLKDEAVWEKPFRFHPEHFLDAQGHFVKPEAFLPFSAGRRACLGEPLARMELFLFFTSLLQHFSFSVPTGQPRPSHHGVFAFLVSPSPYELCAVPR

| Compound | benefit from the addition of dextromethorphan to morphine (enhancement of opioid analgesia) [1] | inhibition of cytochrome P450 isozymes including CYP2D6 [2] |
| --- | --- | --- |
| COc1ccc2c(c1)[C@]13CCCC[C@@H]1[C@H](C2)N(C)CC3 [dextromethorphan] | failed to show any benefit | – |
| CCOC(=O)C1(c2ccccc2)CCC=CC1N(C)C (stereo not drawn) [tilidine] | – | inhibit |
| nortilidine | – | inhibit |
